Tests used:
Experiment in all cases: KINOMEscan binding assay
[1] = molecular target: T1, EPHA3 (Homo sapiens, UniProt P29320); settings: read-out: % Retention on Solid Support
T1 construct: purchased DiscoveRx KINOMEscan
Method in brief: (§1)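 Panel of >400 kinases screened by active-site competition binding, compound at 1 and 10 µM.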

[2] = molecular target: T2, BRSK2 (Homo sapiens, UniProt Q8IWQ3); settings: read-out: % Retention on Solid Support
T2 construct: purchased DiscoveRx KINOMEscan
Method in brief: as §1

[3] = molecular target: T3, CAMK1D (Homo sapiens, UniProt Q8IU85); settings: read-out: % Retention on Solid Support
T3 construct: purchased DiscoveRx KINOMEscan
T3 sequence (Q8IU85 whole entry): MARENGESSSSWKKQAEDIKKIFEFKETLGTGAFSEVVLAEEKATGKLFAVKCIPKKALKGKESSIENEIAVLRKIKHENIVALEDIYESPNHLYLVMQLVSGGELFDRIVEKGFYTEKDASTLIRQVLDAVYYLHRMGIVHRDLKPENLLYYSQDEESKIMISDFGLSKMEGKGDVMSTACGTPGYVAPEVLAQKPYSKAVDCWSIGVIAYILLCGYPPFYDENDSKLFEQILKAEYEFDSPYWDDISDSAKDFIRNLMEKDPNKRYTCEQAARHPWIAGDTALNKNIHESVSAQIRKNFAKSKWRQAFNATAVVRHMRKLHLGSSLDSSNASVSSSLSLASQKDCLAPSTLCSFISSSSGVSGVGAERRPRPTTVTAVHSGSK
Method in brief: as §1

[4] = molecular target: T4, ZAP70 (Homo sapiens, UniProt P43403); settings: read-out: % Retention on Solid Support
T4 construct: purchased DiscoveRx KINOMEscan
T4 sequence (P43403 1-619): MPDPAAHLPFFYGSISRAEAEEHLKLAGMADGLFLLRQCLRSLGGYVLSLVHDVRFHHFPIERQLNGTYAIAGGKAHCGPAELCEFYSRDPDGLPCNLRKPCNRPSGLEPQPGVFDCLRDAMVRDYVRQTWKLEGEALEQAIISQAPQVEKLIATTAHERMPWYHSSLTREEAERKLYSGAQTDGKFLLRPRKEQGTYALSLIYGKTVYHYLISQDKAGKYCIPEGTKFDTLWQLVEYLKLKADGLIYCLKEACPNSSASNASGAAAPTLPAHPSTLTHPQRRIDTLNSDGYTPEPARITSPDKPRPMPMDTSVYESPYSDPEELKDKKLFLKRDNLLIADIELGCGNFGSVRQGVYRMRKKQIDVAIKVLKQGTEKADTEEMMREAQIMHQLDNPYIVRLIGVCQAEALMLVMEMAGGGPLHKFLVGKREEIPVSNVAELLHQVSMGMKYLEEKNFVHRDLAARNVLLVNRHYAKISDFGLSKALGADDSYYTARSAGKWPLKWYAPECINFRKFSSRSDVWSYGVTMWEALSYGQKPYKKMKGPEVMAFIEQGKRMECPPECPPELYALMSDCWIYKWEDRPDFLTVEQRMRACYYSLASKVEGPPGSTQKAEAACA
Method in brief: as §1

[5] = molecular target: T5, ABL1(H396P)-phosphorylated (Homo sapiens, UniProt P00519, H396P); settings: 1 µM i-CDK9; read-out: % Retention on Solid Support
T5 construct: purchased DiscoveRx KINOMEscan
Method in brief: as §1

[6] = molecular target: T6, IGF1R (Homo sapiens, UniProt P08069); settings: read-out: % Retention on Solid Support
T6 construct: purchased DiscoveRx KINOMEscan
T6 sequence (P08069 31-1367): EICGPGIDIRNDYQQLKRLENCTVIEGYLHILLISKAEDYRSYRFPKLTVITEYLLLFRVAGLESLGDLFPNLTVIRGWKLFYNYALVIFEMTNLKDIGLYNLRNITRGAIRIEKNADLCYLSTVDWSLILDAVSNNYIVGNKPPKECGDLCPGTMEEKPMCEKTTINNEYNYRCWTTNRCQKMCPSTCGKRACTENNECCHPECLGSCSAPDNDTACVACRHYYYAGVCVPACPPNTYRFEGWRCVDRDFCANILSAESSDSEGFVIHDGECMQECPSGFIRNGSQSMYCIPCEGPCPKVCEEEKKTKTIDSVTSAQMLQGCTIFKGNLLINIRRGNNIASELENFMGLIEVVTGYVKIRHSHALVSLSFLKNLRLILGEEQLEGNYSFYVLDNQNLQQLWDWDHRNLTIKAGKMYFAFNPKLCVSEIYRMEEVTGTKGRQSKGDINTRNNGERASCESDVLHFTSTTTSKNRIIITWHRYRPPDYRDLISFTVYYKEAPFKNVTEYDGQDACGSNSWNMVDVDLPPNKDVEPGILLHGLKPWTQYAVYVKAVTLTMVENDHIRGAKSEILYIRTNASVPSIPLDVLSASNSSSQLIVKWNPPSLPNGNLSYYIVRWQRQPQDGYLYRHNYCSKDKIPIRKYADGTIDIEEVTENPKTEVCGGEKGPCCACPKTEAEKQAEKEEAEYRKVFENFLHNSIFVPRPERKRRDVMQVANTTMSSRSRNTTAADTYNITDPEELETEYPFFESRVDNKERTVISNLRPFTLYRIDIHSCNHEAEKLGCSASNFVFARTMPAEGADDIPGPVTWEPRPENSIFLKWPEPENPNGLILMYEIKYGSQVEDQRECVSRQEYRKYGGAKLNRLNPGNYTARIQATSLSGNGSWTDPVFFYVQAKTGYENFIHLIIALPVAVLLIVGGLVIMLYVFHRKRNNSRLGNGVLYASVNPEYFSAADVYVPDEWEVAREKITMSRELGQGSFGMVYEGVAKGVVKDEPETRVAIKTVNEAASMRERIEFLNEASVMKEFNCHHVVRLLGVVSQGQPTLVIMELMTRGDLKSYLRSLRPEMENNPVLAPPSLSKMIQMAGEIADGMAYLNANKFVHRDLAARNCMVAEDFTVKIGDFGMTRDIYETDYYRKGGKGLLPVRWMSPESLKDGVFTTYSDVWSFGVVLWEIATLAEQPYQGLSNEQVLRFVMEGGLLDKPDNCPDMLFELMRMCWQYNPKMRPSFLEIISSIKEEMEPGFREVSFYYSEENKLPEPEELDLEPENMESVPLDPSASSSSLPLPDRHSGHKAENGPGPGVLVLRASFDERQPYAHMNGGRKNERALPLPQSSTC
Method in brief: as §1

[7] = molecular target: T7, PRKD3 (Homo sapiens, UniProt O94806); settings: read-out: % Retention on Solid Support
T7 construct: purchased DiscoveRx KINOMEscan
Method in brief: as §1

[8] = molecular target: T8, MLCK (Homo sapiens, UniProt Q32MK0); settings: read-out: % Retention on Solid Support
T8 construct: purchased DiscoveRx KINOMEscan
Method in brief: as §1

[9] = molecular target: T9, ALK (Homo sapiens, UniProt Q9UM73); settings: read-out: % Retention on Solid Support
T9 construct: purchased DiscoveRx KINOMEscan
T9 sequence (Q9UM73 19-1620): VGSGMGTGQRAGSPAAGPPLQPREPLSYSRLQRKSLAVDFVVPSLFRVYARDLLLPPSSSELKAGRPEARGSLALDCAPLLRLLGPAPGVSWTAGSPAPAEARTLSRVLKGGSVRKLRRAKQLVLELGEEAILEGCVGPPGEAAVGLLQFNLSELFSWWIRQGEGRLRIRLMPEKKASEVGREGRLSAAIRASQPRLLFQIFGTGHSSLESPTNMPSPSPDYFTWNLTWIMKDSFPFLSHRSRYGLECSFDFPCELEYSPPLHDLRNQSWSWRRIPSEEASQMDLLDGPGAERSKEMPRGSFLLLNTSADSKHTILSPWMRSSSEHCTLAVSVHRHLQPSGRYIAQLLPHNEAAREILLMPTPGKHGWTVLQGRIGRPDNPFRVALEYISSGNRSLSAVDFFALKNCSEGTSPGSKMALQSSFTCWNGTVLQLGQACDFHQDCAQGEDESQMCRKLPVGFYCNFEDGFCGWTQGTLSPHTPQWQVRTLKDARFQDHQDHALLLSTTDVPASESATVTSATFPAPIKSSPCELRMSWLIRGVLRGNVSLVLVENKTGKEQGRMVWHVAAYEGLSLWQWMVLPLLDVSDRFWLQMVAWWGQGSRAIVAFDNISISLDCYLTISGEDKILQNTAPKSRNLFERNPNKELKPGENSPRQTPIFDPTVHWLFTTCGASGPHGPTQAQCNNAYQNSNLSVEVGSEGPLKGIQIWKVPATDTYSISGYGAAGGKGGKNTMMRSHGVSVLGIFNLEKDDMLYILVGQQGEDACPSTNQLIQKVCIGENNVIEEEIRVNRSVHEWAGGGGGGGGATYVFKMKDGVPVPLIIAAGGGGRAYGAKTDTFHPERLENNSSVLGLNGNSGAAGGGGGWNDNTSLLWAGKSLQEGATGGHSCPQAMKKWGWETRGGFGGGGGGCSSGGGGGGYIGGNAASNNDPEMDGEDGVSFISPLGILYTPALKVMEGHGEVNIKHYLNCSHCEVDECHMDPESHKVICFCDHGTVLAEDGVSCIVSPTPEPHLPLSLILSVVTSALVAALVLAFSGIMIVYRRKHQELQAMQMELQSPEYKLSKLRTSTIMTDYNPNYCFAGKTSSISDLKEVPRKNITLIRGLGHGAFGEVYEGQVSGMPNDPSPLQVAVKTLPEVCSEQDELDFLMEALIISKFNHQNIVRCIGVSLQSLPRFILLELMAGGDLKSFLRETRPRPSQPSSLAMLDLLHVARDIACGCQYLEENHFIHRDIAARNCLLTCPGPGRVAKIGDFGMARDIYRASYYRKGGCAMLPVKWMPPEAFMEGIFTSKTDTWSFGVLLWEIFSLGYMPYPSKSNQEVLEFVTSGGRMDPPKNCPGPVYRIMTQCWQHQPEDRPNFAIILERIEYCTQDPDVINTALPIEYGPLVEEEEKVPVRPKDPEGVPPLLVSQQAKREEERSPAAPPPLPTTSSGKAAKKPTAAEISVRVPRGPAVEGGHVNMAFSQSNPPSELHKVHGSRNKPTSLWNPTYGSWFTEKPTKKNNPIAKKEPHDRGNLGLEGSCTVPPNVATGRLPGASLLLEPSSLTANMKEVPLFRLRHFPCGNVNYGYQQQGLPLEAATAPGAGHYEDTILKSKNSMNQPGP
Method in brief: as §1

[10] = molecular target: T10, RIOK2 (Homo sapiens, UniProt Q9BVS4); settings: read-out: % Retention on Solid Support
T10 construct: purchased DiscoveRx KINOMEscan
Method in brief: as §1

[11] = molecular target: T11, TAK1 (Homo sapiens, UniProt O43318); settings: read-out: % Retention on Solid Support
T11 construct: purchased DiscoveRx KINOMEscan
T11 sequence (O43318 whole entry): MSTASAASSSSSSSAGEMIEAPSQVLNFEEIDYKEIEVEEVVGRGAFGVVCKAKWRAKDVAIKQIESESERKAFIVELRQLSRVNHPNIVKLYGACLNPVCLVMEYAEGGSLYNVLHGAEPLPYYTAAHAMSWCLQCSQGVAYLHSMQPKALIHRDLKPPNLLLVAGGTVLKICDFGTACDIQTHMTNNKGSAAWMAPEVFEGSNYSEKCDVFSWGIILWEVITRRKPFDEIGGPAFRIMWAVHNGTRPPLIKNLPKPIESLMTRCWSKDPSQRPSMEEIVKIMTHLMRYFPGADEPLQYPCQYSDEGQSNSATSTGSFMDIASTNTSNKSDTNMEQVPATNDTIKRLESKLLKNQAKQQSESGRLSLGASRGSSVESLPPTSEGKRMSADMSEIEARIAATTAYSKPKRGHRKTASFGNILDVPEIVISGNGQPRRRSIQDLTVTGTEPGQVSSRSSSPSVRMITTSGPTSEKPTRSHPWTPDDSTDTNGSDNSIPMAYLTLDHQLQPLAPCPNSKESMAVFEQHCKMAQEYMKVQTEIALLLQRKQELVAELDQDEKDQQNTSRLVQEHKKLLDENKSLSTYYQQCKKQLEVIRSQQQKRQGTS
Method in brief: as §1

[12] = molecular target: T12, VRK2 (Homo sapiens, UniProt Q86Y07); settings: 1 µM i-CDK9; read-out: % Retention on Solid Support
T12 construct: purchased DiscoveRx KINOMEscan
Method in brief: as §1

[13] = molecular target: T13, MEK2 (Homo sapiens, UniProt P36507); settings: read-out: % Retention on Solid Support
T13 construct: purchased DiscoveRx KINOMEscan
T13 sequence (P36507 whole entry): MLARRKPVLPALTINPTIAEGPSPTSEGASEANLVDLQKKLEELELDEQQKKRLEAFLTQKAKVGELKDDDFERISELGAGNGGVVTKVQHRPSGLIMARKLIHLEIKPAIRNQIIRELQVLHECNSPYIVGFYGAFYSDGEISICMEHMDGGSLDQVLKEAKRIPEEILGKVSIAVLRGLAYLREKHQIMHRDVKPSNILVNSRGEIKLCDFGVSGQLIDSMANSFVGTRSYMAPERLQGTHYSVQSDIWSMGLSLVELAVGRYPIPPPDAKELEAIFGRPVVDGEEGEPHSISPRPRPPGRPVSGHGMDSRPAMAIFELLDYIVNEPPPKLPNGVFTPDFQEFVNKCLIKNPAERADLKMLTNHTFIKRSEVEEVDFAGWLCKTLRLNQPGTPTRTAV
Method in brief: as §1

[14] = molecular target: T14, TAOK3 (Homo sapiens, UniProt Q9H2K8); settings: read-out: % Retention on Solid Support
T14 construct: purchased DiscoveRx KINOMEscan
T14 sequence (Q9H2K8 1-898): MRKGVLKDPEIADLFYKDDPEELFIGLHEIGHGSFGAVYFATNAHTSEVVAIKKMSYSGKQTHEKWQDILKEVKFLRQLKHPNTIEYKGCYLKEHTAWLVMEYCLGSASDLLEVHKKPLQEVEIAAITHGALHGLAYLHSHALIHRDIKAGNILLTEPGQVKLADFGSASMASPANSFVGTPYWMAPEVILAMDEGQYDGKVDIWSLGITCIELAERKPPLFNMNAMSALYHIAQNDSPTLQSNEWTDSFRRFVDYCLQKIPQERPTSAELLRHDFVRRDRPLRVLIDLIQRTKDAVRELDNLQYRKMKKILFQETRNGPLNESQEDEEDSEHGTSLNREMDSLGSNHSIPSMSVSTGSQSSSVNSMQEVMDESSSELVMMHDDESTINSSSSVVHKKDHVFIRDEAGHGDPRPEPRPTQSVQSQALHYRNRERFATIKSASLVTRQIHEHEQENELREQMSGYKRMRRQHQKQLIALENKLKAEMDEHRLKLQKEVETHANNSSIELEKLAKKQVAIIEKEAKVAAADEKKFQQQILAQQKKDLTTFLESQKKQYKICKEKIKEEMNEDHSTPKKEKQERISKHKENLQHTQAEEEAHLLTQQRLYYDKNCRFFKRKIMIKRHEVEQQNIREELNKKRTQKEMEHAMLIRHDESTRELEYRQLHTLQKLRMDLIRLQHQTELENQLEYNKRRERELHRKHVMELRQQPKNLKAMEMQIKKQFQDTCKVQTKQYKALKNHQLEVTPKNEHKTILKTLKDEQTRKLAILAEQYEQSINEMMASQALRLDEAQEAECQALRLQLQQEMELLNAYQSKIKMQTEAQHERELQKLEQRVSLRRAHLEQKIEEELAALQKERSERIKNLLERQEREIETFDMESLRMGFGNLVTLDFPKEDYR
Method in brief: as §1

T2 sequence (Q8IWQ3 whole entry): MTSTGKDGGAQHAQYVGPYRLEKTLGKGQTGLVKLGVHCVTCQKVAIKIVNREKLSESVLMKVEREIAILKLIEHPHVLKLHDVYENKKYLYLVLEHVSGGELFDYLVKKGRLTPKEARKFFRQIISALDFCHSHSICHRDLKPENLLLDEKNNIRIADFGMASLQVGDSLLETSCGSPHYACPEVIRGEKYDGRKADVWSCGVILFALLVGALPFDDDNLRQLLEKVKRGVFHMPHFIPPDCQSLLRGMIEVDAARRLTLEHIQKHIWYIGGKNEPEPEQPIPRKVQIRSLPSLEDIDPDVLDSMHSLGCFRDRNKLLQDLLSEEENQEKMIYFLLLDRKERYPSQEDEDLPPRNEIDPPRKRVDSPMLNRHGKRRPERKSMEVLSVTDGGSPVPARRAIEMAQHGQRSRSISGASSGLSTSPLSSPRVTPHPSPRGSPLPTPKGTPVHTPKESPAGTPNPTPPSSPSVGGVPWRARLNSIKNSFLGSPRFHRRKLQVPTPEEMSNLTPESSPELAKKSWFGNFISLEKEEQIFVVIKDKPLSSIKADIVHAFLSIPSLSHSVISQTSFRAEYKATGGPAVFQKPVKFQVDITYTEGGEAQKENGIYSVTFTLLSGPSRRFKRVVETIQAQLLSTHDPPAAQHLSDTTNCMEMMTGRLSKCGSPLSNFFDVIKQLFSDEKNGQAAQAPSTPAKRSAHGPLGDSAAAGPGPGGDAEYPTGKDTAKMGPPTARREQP

## N[C@H]1CC[C@H](Nc2cc(-c3cccc(NCc4cccc(F)c4)n3)c(Cl)cn2)CC1 [i-CDK9, N2′-(trans-4-aminocyclohexyl)-5′-chloro-N6-(3-fluorobenzyl)-2,4′-bipyridine-2′,6-diamine]
[1]; 1 µM i-CDK9
  remaining binding at 1 µM: 85%
[1]; 10 µM i-CDK9
  remaining binding at 10 µM: 100%
[2]; 1 µM i-CDK9
  remaining binding at 1 µM: 93%
[2]; 10 µM i-CDK9
  remaining binding at 10 µM: 88%
[3]; 1 µM i-CDK9
  remaining binding at 1 µM: 100%
[3]; 10 µM i-CDK9
  remaining binding at 10 µM: 100%
[4]; 1 µM i-CDK9
  remaining binding at 1 µM: 1.6%
[4]; 10 µM i-CDK9
  remaining binding at 10 µM: 96%
[5]
  remaining binding at 1 µM: 92%
[6]; 1 µM i-CDK9
  remaining binding at 1 µM: 94%
[6]; 10 µM i-CDK9
  remaining binding at 10 µM: 100%
[7]; 1 µM i-CDK9
  remaining binding at 1 µM: 73%
[7]; 10 µM i-CDK9
  remaining binding at 10 µM: 14%
[8]; 1 µM i-CDK9
  remaining binding at 1 µM: 100%
[8]; 10 µM i-CDK9
  remaining binding at 10 µM: 90%
[9]; 1 µM i-CDK9
  remaining binding at 1 µM: 86%
[9]; 10 µM i-CDK9
  remaining binding at 10 µM: 70%
[10]; 1 µM i-CDK9
  remaining binding at 1 µM: 100%
[10]; 10 µM i-CDK9
  remaining binding at 10 µM: 32%
[11]; 1 µM i-CDK9
  remaining binding at 1 µM: 100%
[11]; 10 µM i-CDK9
  remaining binding at 10 µM: 82%
[12]
  remaining binding at 1 µM: 100%
[13]; 1 µM i-CDK9
  remaining binding at 1 µM: 96%
[13]; 10 µM i-CDK9
  remaining binding at 10 µM: 100%
[14]; 1 µM i-CDK9
  remaining binding at 1 µM: 12%
[14]; 10 µM i-CDK9
  remaining binding at 10 µM: 1.2%

Reference: paper PMC4490784, “Compensatory induction of MYC expression by sustained CDK9 inhibition via a BRD4-dependent mechanism” (eLife, 2015)
